Consider four compounds from publication PMC12661293 (RSC Advances, 2025).

One assay concerns the target T1, α-amylase (Sus scrofa, UniProt P00690).
T1 sequence (P00690 16-511): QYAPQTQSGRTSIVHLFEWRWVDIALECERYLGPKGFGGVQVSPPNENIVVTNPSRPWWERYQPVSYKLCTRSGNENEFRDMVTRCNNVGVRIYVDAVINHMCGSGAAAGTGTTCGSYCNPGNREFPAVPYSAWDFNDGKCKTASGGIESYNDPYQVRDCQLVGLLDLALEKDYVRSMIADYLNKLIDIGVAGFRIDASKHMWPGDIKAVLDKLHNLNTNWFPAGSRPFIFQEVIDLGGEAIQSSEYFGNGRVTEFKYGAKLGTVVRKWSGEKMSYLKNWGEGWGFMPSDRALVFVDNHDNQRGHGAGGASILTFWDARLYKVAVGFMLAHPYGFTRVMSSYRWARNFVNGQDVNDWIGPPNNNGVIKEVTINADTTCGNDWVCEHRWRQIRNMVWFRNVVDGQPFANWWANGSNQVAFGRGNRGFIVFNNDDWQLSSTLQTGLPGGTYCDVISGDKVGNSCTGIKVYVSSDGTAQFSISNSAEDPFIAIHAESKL
Nature of the assay: In vitro α-amylase inhibitory assay. It counts as biochemical, porcine. As to conditions: for inhibition at 10 µM: read-out: %Inhibition at 10 µM; for inhibition at 40 µM: read-out: %Inhibition at 40 µM; for inhibition at 80 µM: read-out: %Inhibition at 80 µM; for inhibition at 140 µM: read-out: %Inhibition at 140 µM; for inhibition at 260 µM: read-out: %Inhibition at 260 µM; for inhibition at 400 µM: read-out: %Inhibition at 400 µM; for inhibition at 500 µM: read-out: %Inhibition at 500 µM.

The next assay addresses α-glucosidase (Saccharomyces cerevisiae, UniProt P53341). Nature of the assay: In vitro α-glucosidase inhibitory assay. It counts as biochemical. As to conditions: for inhibition at 10 µM: read-out: %Inhibition at 10 µM; for inhibition at 40 µM: read-out: %Inhibition at 40 µM; for inhibition at 100 µM: read-out: %Inhibition at 100 µM; for inhibition at 140 µM: read-out: %Inhibition at 140 µM; for inhibition at 350 µM: read-out: %Inhibition at 350 µM; for inhibition at 400 µM: read-out: %Inhibition at 400 µM; for inhibition at 500 µM: read-out: %Inhibition at 500 µM.

Assay [1] has as its system ct-DNA. Nature of the assay: Spectrophotometric. As to conditions: ligand fixed 50 µM, ct-DNA 0–80 µM, phosphate buffer pH 7.2. The format is binding, calf.
The subject of assay [2] is ct-DNA. Briefly: Cyclic voltammetry of ligands with ct-DNA. It counts as binding, calf. The note with it: increasing ct-DNA 10–80 µM, phosphate buffer pH 7.2.
The test system of another assay is EB-ct-DNA. Briefly: Ethidium bromide displacement fluorescence quenching with ct-DNA. The format is binding, calf.

Chain of α-glucosidase (P53341 whole entry): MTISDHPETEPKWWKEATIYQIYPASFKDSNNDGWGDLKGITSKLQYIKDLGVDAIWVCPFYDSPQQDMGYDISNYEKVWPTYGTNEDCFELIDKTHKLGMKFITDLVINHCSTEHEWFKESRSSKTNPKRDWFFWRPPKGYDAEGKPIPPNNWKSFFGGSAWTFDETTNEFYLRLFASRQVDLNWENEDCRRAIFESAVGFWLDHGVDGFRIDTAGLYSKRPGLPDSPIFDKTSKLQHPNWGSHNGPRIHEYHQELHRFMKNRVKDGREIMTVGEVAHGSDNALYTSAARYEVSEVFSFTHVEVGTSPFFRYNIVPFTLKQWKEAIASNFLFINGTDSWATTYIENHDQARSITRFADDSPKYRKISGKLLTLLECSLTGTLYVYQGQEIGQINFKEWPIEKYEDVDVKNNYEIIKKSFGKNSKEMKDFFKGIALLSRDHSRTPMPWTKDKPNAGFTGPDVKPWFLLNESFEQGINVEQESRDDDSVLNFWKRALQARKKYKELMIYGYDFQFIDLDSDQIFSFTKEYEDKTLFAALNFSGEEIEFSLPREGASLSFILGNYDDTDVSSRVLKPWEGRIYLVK

As for `C[C@H]1O[C@H](O[C@H]2[C@H](O)[C@@H](O)[C@@H](O[C@H]3[C@H](O)[C@@H](O)C(O)O[C@@H]3CO)O[C@@H]2CO)[C@H](O)[C@@H](O)[C@@H]1N[C@H]1C=C(CO)[C@@H](O)[C@H](O)[C@H]1O` (stereo partly shown) [Acarbose, acarbose, reference compound], at α-amylase, the inhibition at 10 µM is 1.2%, the inhibition at 40 µM was 1.6%, the inhibition at 80 µM is 6% and the inhibition at 140 µM amounted to 26.4%. Moreover, on α-amylase, the inhibition at 260 µM turned out to be 39.8%, the inhibition at 400 µM is 65.1% and the inhibition at 500 µM came to 74.8%. Besides, at α-glucosidase, the inhibition at 10 µM stood at 2.9%, the inhibition at 40 µM stood at 9.44%, the inhibition at 100 µM was 13% and the inhibition at 140 µM is 16.2%. Besides, at α-glucosidase, the inhibition at 350 µM worked out at 81.2%, the inhibition at 400 µM stood at 97.2% and the inhibition at 500 µM worked out at 97.7%.

On α-glucosidase, `Cc1cccc(C=CC(=O)c2cnn(-c3ccccc3)c2C)c1` [L^I, 1-(5-methyl-1-phenyl-1H-pyrazol-4-yl)-3-(m-tolyl)prop-2-en-1-one] showed an IC50 of 394 µM.

As to `Cc1c(C(=O)C=Cc2ccc(Cl)cc2Cl)cnn1-c1ccccc1` [L^II, 3-(2,4-dichlorophenyl)-1-(5-methyl-1-phenyl-1H-pyrazol-4-yl)prop-2-en-1-one], on α-glucosidase, half-maximal inhibition (IC50) required 215 µM.

As for `Cc1c(C(=O)C=Cc2cccc([N+](=O)[O-])c2)cnn1-c1ccccc1` [L^III, 1-(5-methyl-1-phenyl-1H-pyrazol-4-yl)-3-(3-nitrophenyl) prop-2-en-1-one], in the assay on ct-DNA [1], the “Binding constant (kb)” value was 15590 M⁻¹ and the Interaction mode entry is on record as “Intercalative”. The compound further displayed an IC50 at α-amylase (IC50 α-amylase) of 984 µM. In addition, at α-amylase, the inhibition at 10 µM was determined as 9.1%, the inhibition at 40 µM was found to be 9.5%, the inhibition at 80 µM turned out to be 11% and the inhibition at 140 µM is 12%. For the same compound, at α-amylase, the inhibition at 260 µM was 16.8%, the inhibition at 400 µM turned out to be 26% and the inhibition at 500 µM was 28.9%. At α-glucosidase, the IC50 turned out to be 281 µM, the inhibition at 10 µM was 9.36%, the inhibition at 40 µM is 10.8% and the inhibition at 100 µM turned out to be 21.4%. In addition, at α-glucosidase, the inhibition at 140 µM is 32.4%, the inhibition at 350 µM came to 67%, the inhibition at 400 µM is 71.5% and the inhibition at 500 µM turned out to be 74.1%. Besides, in the assay on ct-DNA [2], the “Binding mode from cyclic voltammetry” value is listed as “intercalation”. The “Quenching constant (Ksv)” value in the assay with EB-ct-DNA (Stern–Volmer) came out at 3030 M⁻¹. Besides, the “Binding constant (Kb)” value in the assay on EB-ct-DNA (modified Stern–Volmer) was determined as 4315.8 M⁻¹.
